Laboratory results published in ChEMBL document CHEMBL1201862, “PubChem BioAssay data set” (2004).
Activity calls are given as the source filed them. Rule as the data show it, for most assays here: actives have a measured AC50 and inactives only a lower limit.

Legend:
Escherichia coli = experiment: microbe, parasite or virus in culture
[1] = target: Dual specificity tyrosine-phosphorylation-regulated kinase 1A (Rattus norvegicus, UniProt Q63470); format: biochemical, Homo sapiens
Aminopeptidase N = target: T1, Aminopeptidase N (Plasmodium falciparum FcB1/Columbia, UniProt O96935); experiment: P. falciparum M1AAP inhibitors, biochemical, fluorogenic H-Leu-NHMec substrate, 1536-well (AID 1445); design: species or system Plasmodium falciparum 3D7, 3D7
T1 sequence (O96935 whole entry): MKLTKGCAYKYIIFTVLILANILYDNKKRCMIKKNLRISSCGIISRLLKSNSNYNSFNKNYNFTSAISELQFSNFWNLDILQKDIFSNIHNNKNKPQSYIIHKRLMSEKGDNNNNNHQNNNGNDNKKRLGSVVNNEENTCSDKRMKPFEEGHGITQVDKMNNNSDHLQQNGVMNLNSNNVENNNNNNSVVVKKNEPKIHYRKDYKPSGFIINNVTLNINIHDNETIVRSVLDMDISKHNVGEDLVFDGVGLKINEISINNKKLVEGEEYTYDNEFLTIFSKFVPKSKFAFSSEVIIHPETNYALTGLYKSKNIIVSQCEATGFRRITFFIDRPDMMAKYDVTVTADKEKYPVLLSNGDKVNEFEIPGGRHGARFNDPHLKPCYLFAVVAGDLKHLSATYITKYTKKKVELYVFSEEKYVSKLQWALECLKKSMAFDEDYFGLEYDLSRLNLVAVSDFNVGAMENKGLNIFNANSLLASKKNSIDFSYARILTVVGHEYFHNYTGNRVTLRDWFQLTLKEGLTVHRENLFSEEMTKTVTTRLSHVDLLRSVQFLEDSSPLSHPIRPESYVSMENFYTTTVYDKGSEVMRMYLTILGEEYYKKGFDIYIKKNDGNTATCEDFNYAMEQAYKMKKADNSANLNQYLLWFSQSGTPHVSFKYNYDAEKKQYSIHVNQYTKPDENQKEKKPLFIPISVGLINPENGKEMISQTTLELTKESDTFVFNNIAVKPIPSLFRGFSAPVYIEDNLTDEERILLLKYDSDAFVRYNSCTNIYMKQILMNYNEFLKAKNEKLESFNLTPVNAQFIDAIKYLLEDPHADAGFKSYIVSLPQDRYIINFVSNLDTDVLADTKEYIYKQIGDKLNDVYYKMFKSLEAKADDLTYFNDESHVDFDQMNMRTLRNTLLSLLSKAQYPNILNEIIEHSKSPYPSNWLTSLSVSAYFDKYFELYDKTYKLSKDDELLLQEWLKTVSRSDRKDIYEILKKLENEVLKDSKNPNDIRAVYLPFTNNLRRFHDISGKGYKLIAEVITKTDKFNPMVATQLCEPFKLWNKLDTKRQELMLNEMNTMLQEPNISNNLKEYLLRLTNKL

[2] = target: T2, Microphthalmia-associated transcription factor (Homo sapiens, UniProt O75030); experiment: TRPM1 promoter luciferase signal decrease, dose response, MITF inhibitor project, cell-based, SK-MEL-5, cherry-picked, set 3 (AID 493073); format: functional
T2 sequence (O75030 whole entry): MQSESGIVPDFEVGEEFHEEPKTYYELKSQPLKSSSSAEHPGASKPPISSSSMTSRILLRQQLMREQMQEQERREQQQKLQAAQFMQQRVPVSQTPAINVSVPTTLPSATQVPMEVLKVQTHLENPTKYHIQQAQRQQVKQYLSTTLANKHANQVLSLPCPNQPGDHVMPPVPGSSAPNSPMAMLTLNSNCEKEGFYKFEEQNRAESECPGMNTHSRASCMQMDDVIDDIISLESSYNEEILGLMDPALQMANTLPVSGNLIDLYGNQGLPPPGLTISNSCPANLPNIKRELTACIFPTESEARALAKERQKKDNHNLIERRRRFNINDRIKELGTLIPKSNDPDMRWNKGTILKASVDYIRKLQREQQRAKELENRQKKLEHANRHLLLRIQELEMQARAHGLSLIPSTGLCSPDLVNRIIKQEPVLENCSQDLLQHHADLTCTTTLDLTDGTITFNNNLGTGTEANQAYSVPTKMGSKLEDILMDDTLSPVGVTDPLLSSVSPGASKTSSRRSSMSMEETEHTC

[3] = Shn3 3'UTR reporter inhibitors, dose response, cell-based, Clone20 osteoblasts, firefly luciferase, cherry-picked (AID 624132); format: functional;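 also: firefly luciferase luminescence from reporter carrying the Shn3 3'UTR in osteoblasts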
[4] = HepG2 cell cytotoxicity, dose response, cytotoxicity control for Shn3 inhibitor project, CellTiter-Glo, cherry-picked (AID 624134); format: functional, cell-based
[5] = control 3'UTR Renilla luciferase suppression, dose response, counter-screen for Shn3 inhibitor project, cell-based, Clone20-Shn3RL, cherry-picked (AID 624133); format: functional
HeLa = experiment: HeLa cell cytotoxicity, dose response, cytotoxicity control for MITF activator project, CellTiter-Glo luminescence, cherry-pick samples (AID 540259); format: functional, cell-based; settings: Homo sapiens
[6] = target: FAD-linked sulfhydryl oxidase ALR (Homo sapiens, UniProt P55789); experiment: inhibitors of human ALR sulfhydryl oxidase, dose response, biochemical, H2O2 detection, luminescence, cherry-pick (AID 493248)
Sequence of FAD-linked sulfhydryl oxidase ALR (P55789 whole entry): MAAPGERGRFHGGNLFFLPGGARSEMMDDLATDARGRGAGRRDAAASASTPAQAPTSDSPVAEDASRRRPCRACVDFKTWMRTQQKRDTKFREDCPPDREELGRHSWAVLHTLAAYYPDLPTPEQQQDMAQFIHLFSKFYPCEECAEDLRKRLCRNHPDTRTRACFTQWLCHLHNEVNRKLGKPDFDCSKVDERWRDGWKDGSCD

In the case of `Oc1c(Br)cc(C2NC(c3ccccc3)=NO2)cc1Br` (stereo not drawn), the AC50 (Escherichia coli) is reported as 20.2 µM (active).
In the case of `COc1cc(/C=C2/C(=N)N3C(SC)=NSC3=NC2=O)ccc1OC(=O)c1ccco1`, the AC50 [1] is reported as 5.64 µM (active).
In the case of `NS(=O)(=O)c1ccc(CCNC(=O)Cc2ccc(S(=O)(=O)N3CCCC3)s2)cc1`, the IC50 (Aminopeptidase N) is reported as 8.91 µM (active) and the AC50 (Escherichia coli) is reported as 39.6 µM (active).
With `CC1CCC/C=C/C(=O)c2c(O)cc(O)cc2CC(=O)O1` (stereo not drawn) the AC50 [2] was 5.79 µM (active), the AC50 [3] was 4.12 µM (active) and the AC50 [4] was > 70 µM (inactive). For the same compound, the AC50 [5] was 13.6 µM (active).
For `CCc1ccc(NC(=O)c2nnc(O)c3ccccc23)cc1`, the AC50 (HeLa) was > 350 µM (inactive).
With `CC1CCc2cc(F)cc3c(=O)c(C(=O)O)cn1c23` (stereo not drawn) [FLUMEQUINE] the AC50 (Escherichia coli) was 1.99 µM (active).
For `Nc1ccc2oc(-c3cccs3)nc2c1`, the AC50 [6] was 0.155 µM (active) and the AC50 (HeLa) was 168 µM (active).
With `Nc1c(C(=O)O)ccc2c1C(=O)c1ccccc1C2=O` the AC50 [1] was 1.28 µM (active).
